{"source": "paper PMC4677828", "about": "(Combinatorial chemistry & high throughput screening, 2015)", "format_in_all_cases": "biochemical", "key": {"HDAC6": {"target": "T1, HDAC6 (Homo sapiens, UniProt Q9UBN7)", "T1 sequence (Q9UBN7 1-1215)": "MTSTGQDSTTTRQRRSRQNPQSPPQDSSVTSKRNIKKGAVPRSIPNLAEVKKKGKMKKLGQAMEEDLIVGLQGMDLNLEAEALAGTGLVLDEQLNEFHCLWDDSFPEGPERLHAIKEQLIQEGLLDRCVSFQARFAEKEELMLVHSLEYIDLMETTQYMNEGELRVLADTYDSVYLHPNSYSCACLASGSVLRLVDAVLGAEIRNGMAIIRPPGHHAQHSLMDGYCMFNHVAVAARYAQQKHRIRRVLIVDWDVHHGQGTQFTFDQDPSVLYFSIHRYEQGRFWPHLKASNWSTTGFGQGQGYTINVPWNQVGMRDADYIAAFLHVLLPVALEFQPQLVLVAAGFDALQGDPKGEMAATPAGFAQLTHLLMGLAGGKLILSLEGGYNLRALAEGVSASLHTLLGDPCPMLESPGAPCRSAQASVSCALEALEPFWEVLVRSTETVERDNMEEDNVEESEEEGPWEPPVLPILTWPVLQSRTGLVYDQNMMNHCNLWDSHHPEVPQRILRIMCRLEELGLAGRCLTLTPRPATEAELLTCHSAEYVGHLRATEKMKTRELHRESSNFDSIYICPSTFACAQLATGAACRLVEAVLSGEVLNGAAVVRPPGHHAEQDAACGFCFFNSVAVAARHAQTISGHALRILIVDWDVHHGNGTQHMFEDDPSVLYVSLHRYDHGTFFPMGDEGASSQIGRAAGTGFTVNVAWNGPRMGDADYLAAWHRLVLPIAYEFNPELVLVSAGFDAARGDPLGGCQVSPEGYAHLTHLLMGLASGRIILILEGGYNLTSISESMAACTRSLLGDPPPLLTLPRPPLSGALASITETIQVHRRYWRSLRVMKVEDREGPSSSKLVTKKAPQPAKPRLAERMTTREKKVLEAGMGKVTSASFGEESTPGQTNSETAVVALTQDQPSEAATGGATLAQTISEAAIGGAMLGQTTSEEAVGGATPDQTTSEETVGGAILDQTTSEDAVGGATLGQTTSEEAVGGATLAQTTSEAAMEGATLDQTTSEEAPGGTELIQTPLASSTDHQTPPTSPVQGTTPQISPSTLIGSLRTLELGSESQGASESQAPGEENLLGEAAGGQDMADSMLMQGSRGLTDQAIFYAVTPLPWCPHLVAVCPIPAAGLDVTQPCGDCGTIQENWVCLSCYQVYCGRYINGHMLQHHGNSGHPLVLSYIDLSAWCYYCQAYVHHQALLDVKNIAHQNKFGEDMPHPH", "experiment": "single-concentration inhibition assay", "settings": "100 μM inhibitor"}, "HDAC2": {"target": "HDAC2 (Homo sapiens, UniProt Q92769)", "sequence (Q92769 whole entry)": "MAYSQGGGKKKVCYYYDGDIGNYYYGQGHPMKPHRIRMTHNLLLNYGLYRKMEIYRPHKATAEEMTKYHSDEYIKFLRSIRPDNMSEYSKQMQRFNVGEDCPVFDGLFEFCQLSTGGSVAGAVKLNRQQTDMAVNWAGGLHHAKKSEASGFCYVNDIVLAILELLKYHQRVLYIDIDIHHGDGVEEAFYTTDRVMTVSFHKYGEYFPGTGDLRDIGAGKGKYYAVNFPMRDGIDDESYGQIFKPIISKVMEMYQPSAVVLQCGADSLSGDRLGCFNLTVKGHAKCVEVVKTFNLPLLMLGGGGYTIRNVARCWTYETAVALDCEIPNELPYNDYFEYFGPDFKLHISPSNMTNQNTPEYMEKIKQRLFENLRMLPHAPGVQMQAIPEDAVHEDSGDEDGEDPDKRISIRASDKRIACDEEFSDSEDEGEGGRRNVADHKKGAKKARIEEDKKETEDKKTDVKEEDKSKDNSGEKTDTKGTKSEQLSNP", "experiment": "fluorogenic HDAC assay", "settings": "5 μL of 200 μM HDAC substrate in 50 μL; 30 min pre-incubation; 37 °C; BSA"}, "HDAC1": {"target": "HDAC1 (Homo sapiens, UniProt Q13547)", "sequence (Q13547 whole entry)": "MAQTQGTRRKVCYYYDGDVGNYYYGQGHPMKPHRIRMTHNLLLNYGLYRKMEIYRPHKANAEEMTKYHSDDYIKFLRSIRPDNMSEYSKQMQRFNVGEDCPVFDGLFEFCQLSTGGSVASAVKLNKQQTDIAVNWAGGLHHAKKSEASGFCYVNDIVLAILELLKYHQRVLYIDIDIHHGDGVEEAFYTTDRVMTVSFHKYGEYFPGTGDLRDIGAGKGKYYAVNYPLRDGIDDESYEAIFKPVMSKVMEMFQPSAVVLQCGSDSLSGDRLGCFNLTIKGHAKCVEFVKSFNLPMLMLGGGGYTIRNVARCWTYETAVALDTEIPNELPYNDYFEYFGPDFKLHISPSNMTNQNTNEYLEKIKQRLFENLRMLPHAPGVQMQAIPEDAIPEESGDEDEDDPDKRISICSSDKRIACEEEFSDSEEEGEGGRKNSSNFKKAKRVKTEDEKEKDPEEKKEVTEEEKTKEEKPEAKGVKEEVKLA", "experiment": "single-concentration inhibition assay", "settings": "100 μM inhibitor"}}, "data": [{"substance": "ST088357", "values": [{"measurement": "% inhibition at 100 μM", "setting": "HDAC6", "value": 34.28, "unit": "%"}, {"measurement": "IC50", "setting": "HDAC2", "value": 16.9, "unit": "µM"}, {"measurement": "% inhibition at 100 μM", "setting": "HDAC1", "value": 86.90, "unit": "%"}]}]}
